Values quoted from earlier work in patent US20220175791A1, “Methods for Predicting Neisseria Spp. Susceptibility to Cefixime” (priority 2019, published 2022).

In the case of `C=CC1=C(C(=O)O)N2C(=O)[C@@H](NC(=O)/C(=N\OCC(=O)O)c3csc(N)n3)[C@H]2SC1` [cefixime, Cefixime], the tolerability (even in penicillin allergic patients) is given as “very well tolerated” and the bioavailability (human, in vivo, po) is given as “high”.
